Target: Mitogen-activated protein kinase 1 (Homo sapiens, UniProt P28482)
Experiment: Radiological Kinase Inhibition Assay
Details: pH 7.5; 22 °C
Procedure: Kinase activity was assayed for autophosphorylation and phosphorylation of MBP with radio-labeled gamma-32P. IC50 values were calculated from binding curves using LSW Data Analysis Tool Box version 1.1.1 in MicroSoft Excel.

Mitogen-activated protein kinase 1, sequence (P28482 whole entry): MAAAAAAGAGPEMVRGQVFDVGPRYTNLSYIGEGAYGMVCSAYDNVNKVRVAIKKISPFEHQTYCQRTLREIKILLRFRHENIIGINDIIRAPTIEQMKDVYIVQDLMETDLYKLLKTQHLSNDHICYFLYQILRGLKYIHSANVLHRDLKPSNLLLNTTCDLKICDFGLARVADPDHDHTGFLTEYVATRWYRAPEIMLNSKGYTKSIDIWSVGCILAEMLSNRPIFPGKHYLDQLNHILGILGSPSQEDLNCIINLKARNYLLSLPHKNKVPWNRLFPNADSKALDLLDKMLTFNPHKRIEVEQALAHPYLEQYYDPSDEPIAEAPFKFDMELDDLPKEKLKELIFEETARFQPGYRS

Molecule `O=C1NC(=O)C(=Cc2ccc(Sc3ccc(Cl)cc3)c([N+](=O)[O-])c2)C(=O)N1` [5-({4-[(4-chlorophenyl)sulfanyl]-3-nitrophenyl}methylidene)pyrimidine-2,4,6(1H,3H,5H)-trione] has an IC50 of 53 µM.

With `O=C1c2ccccc2C(=O)c2cc(S(=O)(=O)Nc3cccc([N+](=O)[O-])c3)ccc21` [N-(3-nitrophenyl)-9,10-dioxo-9,10-dihydroanthracene-2-sulfonamide] the IC50 was over 200 µM.

Source: BindingDB's records for doi:10.1021/jm070645a (Rockefeller University, 2007)
